Experimental data as given in paper PMC4893612 (Scientific Reports, 2016).

Legend:
[1] = target: T1, USP14 (Homo sapiens, UniProt P54578); assay: HA-Ub-VS active-site labeling of purified 19S, USP14; format: biochemical; parameters: purchased Boston Biochem E-366; conditions: purified 19S RP; 2.5 μM
Description: (§1) Cell extract proteins were resolved by Tris-Acetate PAGE gels (Invitrogen, Carlsbad, CA) and transferred onto a polyvinylidene difluoride (PVDF) membrane for western blotting. For Ub-VS labeling, we lysed cell pellets from control or treated cells with buffer (50 mM HEPES pH 7.4, 250 mM sucrose, 10 mM MgCl2, 2 mM ATP, 1 mM DTT and 1%NP-40) on ice for 30 min and removed debris by centrifugation. We labeled 25 μg of protein with 1 μM Ub-VS for 30 min at 37 °C. We resolved samples by SDS-PAGE and performed immunoblotting. For HA-Ub-VS labeling, we pretreated purified 19S (5 nM) with DMSO or 2.5, 5, 10, 15 or 25μM 1570 for 10 min at room temperature, which followed with labeling with 1 μM HA-Ub-VS for 30 min at 37 °C and immunoblotting.

[2] = target: T2, USP5 (Homo sapiens, UniProt P45974); assay: SPR binding to USP5; conditions: data not shown
T2 sequence (P45974 1-858): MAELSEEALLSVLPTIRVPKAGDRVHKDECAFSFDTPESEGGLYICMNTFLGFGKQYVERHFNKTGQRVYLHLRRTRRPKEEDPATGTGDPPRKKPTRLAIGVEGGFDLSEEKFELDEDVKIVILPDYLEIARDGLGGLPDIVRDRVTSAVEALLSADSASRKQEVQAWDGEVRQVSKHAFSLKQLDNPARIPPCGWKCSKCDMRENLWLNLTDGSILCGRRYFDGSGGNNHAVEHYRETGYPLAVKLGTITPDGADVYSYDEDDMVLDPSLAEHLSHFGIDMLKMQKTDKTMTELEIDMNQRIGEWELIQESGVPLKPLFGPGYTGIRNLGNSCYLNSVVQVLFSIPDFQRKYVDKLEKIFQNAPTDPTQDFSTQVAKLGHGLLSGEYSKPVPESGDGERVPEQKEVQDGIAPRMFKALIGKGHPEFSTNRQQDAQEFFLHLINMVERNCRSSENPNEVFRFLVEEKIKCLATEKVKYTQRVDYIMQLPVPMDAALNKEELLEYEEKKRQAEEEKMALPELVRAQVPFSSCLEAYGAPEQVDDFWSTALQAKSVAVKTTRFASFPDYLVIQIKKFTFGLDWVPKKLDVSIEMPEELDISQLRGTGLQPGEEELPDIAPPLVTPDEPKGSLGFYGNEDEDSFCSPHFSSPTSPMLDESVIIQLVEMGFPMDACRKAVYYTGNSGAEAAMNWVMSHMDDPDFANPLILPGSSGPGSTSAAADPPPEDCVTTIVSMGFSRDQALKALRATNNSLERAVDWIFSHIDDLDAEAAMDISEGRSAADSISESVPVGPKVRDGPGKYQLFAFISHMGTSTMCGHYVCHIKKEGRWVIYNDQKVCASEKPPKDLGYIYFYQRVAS

[3] = tested on: myeloma cells; assay: CFSE cell proliferation assay; format: cell-based, human; conditions: 0.25 μM or 0.5 μM; 72 hours
Description: Cell proliferation was measured using the Cell trace^TM CSFE cell proliferation kit. Cells were suspended at 5 × 10^5 cells/ml, incubated with CellTrace^TM reagent for 20 minutes and exposed to the drug at indicated concentrations using DMSO as a control. After 72 h cells were collected, washed twice in 1× PBS, fixed with 3,7% formaldehyde and analysed by flow cytometry.

[4] = target: T3, UCHL5 (Homo sapiens, UniProt Q9Y5K5); assay: HA-Ub-VS active-site labeling of purified 19S, UCHL5; format: biochemical; conditions: purified 19S RP; compared with USP14
T3 construct: purchased Boston Biochem E-366
Description: as §1

[5] = target: T1, USP14; assay: Cellular thermal shift assay (CETSA) in OPM-2 cells; format: cell-based; parameters: endogenous in cells; host or cells: OPM-2 multiple myeloma cells; conditions: 1 μM, 1 hour
Description: For CETSA, the same amount of cells as one sample was treated with required condition and collected as described. Each sample was suspended in PBS supplemented with protease inhibitors after they were washed in PBS. And then these samples were heated at 51, 53, or 55 °C for 3 min. Immediately after heating, tubes were removed and incubated at room temperature for 3 min, and then snap-frozen in liquid nitrogen. Samples were freeze-thawed twice and centrifuged at 20,000 g for 20 min at +4 °C and supernatants were analysed by Western-blotting.

[6] = tested on: KMS-11 multiple myeloma cells; format: in vivo; conditions: 3 mg/kg intravenous, 10 days; SCID mice
Description: Two different multiple myeloma models were used. Experimental protocols and methods were performed by Accelera (Nerviano, Italy) in accordance with guidelines and with permission from the local ethics committee (Nerviano Medical Sciences (NMS) Ethic Committee). All experimental protocols were approved by the Nerviano Medical Sciences (NMS) Ethic Committee. Study director was Marina Ciomei. SCID female mice were obtained from Charles River, Italy. Body weights at the day of tumor implant were between 19 and 22 grams. Treatment started at day 7 after injection of tumor cells and continued for 10 consequtive days. Mice were monitored daily for mortality and clinical signs. In the KMS-11 model, antitumor efficacy was evaluated in terms of survival increase respect to control. In the RPMI8226 model, the growth of subcutaneous tumors was recorded. […] A gray-scale image of the mice was captured, followed by an overlay of a bioluminescence map representing the spatial distribution of photons detected from cleaved luciferin in the cancer cells expressing luciferase. Signal intensity was quantified using a customized version of the IGOR Pro version 4.09A Software (WaveMetrics, Inc., Lake Oswego, OR) called Living Image version 3.00 (Xenogen). Photon emission was measured as whole-body radiance and the individual regions of interest (ROIs) were manually selected. […]

T1 sequence (P54578 whole entry): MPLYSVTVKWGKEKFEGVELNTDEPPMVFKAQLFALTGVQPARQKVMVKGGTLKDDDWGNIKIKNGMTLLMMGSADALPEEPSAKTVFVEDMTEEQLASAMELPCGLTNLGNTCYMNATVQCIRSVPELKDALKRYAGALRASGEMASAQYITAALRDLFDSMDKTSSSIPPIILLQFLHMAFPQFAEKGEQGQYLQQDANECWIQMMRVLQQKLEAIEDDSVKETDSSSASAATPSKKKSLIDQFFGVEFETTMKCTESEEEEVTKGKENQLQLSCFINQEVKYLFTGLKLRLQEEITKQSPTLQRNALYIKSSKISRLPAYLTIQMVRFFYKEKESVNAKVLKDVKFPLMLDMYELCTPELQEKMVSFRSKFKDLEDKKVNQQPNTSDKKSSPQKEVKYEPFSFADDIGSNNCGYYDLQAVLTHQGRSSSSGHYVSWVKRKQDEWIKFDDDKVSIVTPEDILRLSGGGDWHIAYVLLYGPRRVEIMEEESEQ

C=CC(=O)N1CC/C(=C\c2ccc(F)c([N+](=O)[O-])c2)C(=O)/C(=C/c2ccc(F)c([N+](=O)[O-])c2)C1 [VLX1570]
inhibition of USP14 activity (Ub-VS labeling) [1]: strongly inhibited | saturable binding to USP5 [2]: No saturable binding | cell cycle arrest (CFSE dilution) [3]: arrest myeloma cells in the cell cycle | inhibition of UCHL5 (Ub-VS labeling) [4]: required higher drug concentrations | thermostabilization of USP14 [5]: thermostabilized | thermostabilization of USP14 ([5]; 53°–55 °C): 2.5 fold control | survival of the animals [6]: increased the survival
